The values that follow come from patent US5583142A, “Analgesic and nootropic drugs” (priority 1992, dated 1996).

SMILES strings stand for the structures.

The conditions of data set [1]: mouse; FIG. 7 and FIG. 7 bis. How it is done: In FIGS. 7 and 7 bis vertical lines give s.e. mean. Each column represents the mean of 6-10 mice. SM-21 maleate, PG-9 maleate, SM-32 oxalate, cocaine HCl, amphetamine sulphate and caffeine were administered 15 min before test.
Data set [2] in a line: mouse passive avoidance test, amnesia induced by hypoxia. It is filed as in vivo. The note with it: 30 to 300 mg/kg i.p. How it is done:
The nootropic action (learning facilitation, memory enhancement, intelligence booster, cognition activation) was assessed both in mouse and in rat by the two following methods: the mouse was tested by the passive avoidance method, using the so-called light-dark box. A painful stimulus, i.e. an electrically-evoked shock through the animal paws, and an unpleasant but not painful stimulus (mice fall into a water-ice mixture ensuing a sudden dark box floor opening) were used. A non-painful stimulus was required because the data referred to learning had not to be untruthfully negative due to the analgesic action of the claimed molecules. The painful stimulus (electric shock), like the unpleasant but not painful one, was effective at the interval of doses at which the claimed molecules were clearly nootropic but not yet analgesic. Independently of the type of stimulus used, the procedure consists of two experimental phases denominated, respectively, Training and Retention, the latter being carried out 24 hrs after the former. […] To this purpose the time taken by mice to enter the dark box is measured again: the longer the time recorded in the second day when compared with the first (Retention minus Training), the higher the mice learning and memorizing capabilities. […]

As to `CC(N)Cc1ccccc1` (stereo not drawn) [amphetamine], in data set [1], the “motor activity and curiosity (exploration activity)” value is “remarkably increase the motor activity”.

In the case of `Cn1c(=O)c2c(ncn2C)n(C)c1=O` [caffeine], the “motor activity and curiosity (exploration activity)” value in data set [1] is on record as “remarkably increase the motor activity”.

Take `NC(=O)CN1CCCC1=O` [Piracetam]: the “effect on amnesia induced by hypoxia” value in data set [2] is “inactive”.
